Source: US20250353842A1, “BICYCLIC AMINE CDK12 INHIBITORS” (Incyte Corporation, priority 2022, published 2025)

Each compound was assayed against CDK12 complexed with Cyclin K (Homo sapiens (Human), UniProt Q9NYV4) (assay: CDK enzymatic assay (HTRF, LANCE Ultra kinase assay)). Conditions: 60 minutes pre-incubation, 1 mM ATP.
Assay type: biochemical
Procedure, shortened: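 GST-tagged human CDK12 co-expressed with full-length Cyclin K in baculovirus, pre-incubated 60 min with compound, then 1 mM ATP and 50 nM ULight-4E-BP1 peptide (final) in pH 7.5 HEPES buffer for 60-90 min at room temperature. EDTA/Eu-anti-phospho-4E-BP1 stop; 665/620 nm HTRF ratio normalized to DMSO and no-enzyme controls, IC50 from 3- or 4-parameter fit.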

CDK12 complexed with Cyclin K, sequence (Q9NYV4 whole entry): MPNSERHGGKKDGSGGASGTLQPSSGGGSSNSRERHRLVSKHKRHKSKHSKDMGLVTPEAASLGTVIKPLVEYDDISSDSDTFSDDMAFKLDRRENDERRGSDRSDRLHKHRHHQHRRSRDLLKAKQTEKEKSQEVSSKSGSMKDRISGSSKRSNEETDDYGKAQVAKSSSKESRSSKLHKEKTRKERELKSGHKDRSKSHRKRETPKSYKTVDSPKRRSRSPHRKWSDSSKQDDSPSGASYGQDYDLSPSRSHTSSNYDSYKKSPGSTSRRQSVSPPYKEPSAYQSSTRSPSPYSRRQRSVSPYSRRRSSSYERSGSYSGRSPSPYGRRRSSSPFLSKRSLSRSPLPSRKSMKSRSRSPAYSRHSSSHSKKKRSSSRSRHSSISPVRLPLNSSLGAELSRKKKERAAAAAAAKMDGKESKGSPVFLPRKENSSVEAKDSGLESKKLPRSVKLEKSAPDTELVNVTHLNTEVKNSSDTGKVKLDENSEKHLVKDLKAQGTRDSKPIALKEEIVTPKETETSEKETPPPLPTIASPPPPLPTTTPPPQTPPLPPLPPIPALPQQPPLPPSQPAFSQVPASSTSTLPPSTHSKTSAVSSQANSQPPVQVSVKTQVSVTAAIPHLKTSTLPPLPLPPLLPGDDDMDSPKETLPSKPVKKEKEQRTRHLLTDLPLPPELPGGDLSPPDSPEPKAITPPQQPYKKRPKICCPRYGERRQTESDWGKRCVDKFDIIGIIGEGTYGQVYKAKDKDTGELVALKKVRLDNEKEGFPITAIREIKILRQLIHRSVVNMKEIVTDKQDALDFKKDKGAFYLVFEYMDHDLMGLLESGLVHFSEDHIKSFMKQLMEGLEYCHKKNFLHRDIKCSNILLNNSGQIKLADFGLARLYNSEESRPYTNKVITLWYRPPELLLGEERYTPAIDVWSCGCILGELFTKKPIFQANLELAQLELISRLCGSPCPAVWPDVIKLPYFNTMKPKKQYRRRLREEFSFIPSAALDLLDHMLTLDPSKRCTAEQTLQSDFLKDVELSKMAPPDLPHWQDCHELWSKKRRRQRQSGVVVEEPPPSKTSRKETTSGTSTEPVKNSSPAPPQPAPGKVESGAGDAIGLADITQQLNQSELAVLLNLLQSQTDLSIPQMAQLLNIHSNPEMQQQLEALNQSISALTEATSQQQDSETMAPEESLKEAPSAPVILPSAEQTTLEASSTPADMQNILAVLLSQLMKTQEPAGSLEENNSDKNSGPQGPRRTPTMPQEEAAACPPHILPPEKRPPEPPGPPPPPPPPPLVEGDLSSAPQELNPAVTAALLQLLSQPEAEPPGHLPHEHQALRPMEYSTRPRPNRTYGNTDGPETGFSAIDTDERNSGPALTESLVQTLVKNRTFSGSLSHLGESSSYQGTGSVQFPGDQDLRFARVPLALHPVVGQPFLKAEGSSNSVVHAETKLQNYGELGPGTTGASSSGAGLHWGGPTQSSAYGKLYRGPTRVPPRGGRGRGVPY
CDK12 complexed with Cyclin K, sequence (O75909 whole entry partner): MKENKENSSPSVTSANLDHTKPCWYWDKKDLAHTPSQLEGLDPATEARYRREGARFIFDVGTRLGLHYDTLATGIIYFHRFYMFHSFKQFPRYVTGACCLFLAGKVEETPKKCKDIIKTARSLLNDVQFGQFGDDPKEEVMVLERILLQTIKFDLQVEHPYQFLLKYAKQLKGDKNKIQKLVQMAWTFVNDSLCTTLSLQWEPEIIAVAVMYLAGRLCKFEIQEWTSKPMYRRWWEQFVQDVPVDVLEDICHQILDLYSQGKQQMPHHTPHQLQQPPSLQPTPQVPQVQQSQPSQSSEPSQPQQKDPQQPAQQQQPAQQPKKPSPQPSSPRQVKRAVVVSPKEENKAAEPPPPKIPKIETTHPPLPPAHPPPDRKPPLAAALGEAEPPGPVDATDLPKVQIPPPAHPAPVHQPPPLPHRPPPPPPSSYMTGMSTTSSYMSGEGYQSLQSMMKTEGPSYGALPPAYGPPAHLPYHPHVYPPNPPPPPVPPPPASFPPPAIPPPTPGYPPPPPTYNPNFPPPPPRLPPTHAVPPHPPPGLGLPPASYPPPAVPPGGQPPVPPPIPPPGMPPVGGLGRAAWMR

IC50, < 50 nM:
N#Cc1cccc2ncn([C@H]3CCC[C@@H](Nc4ncc(C(F)(F)F)c(-c5cnn(CC(F)F)c5)n4)C3)c12 [Example 87, 1-((1S,3R)-3-((4-(1-(2,2-Difluoroethyl)-1H-pyrazol-4-yl)-5-(trifluoromethyl)pyrimidin-2-yl)amino)cyclohexyl)-1H-benzo[d]imidazole-7-carbonitrile]
N#Cc1cc2ncn([C@H]3CCC[C@@H](Nc4ncc(C#N)c(-c5cnn(CC(F)F)c5)n4)C3)c2cn1 [Example 88, 3-((1S,3R)-3-((5-Cyano-4-(1-(2,2-difluoroethyl)-1H-pyrazol-4-yl)pyrimidin-2-yl)amino)cyclohexyl)-3H-imidazo[4,5-c]pyridine-6-carbonitrile]
Cc1c(-c2nc(N[C@@H]3CCC[C@H](n4cnc5cc(C#N)cnc54)C3)ncc2C#N)cnn1C [Example 89, 3-((1S,3R)-3-((5-Cyano-4-(1,5-dimethyl-1H-pyrazol-4-yl)pyrimidin-2-yl)amino)cyclohexyl)-3H-imidazo[4,5-b]pyridine-6-carbonitrile]
